# According to patent US11085053B2, “Efficient selectivity of recombinant proteins” (REGENERON PHARMACEUTICALS, INC., priority 2014, dated 2021):
# Test system: Modified CHO K1 cells
# Experiment: Selection efficiency of transfectant cells by FACS (GFP+ population)
# Format: cell-based, Chinese hamster
# Source text: Modified CHO K1 cells were transfected with a plasmid vector containing CHO-GPT (SEQ ID NO: 2), human GPT (SEQ ID NO:12) or a plasmid vector containing a hygromycin phosphotransferase (Hpt, Hygromycin resistant gene); e.g. the selectable marker gene (CHO-GPT or hpt) was transcriptionally linked to a downstream eGFP gene via an IRES sequence, in their respective vectors. For example, each plasmid was constructed to contain the following gene sequences, in 5′ to 3′ direction: a Lox site, a SV40 late promoter, either CHO-GPT (or Hpt), IRES, enhanced green fluorescent protein (eGFP), and a second Lox site. Purified recombinant plasmids were transfected together with a plasmid that expresses Cre recombinase, into a modified CHO host cell line containing: from 5′ to 3′, a lox site, YFP, and a second lox site, at a transcriptionally active locus. Consequently, the host CHO cell can be isolated by flow cytometry as a green-positive or a yellow-negative cell. […]
# Cell populations were either incubated with 0, 1 μg/ml, 2.5 μg/ml or 5 μg/ml tunicamycin (Tn) or 400 μg hygromycin (Hyg), as outlined in Table 2. Observed recombinant populations (ORPs) were measured by fluorescent-activated cell sorting (FACS) analysis. Cells were sorted to quantitate each population of cells, and selection efficiency was calculated for cells expressing only GFP and not YFP (FIG. 4 or 5). […]
substance,measurement,value
tunicamycin,Selection efficiency compared with hygromycin selection,as efficient as hygromycin selection
